From PubChem BioAssay (NCI)
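In this assay, cells in 96-well plates receive the compound at five concentrations for 48 hours. Endpoints are linearly interpolated between the surrounding concentrations. GI50 marks 50% less growth. Definition used: TGI = concentration required for complete inhibition of growth.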

Key:
Test in all cases: NCI anticancer screen, dose series, 48 h
SW-620 colon = test system: SW-620 colon
SK-MEL-2 melanoma = test system: SK-MEL-2 melanoma
786-0 renal = test system: 786-0 renal
OVCAR-8 ovarian = test system: OVCAR-8 ovarian
M14 melanoma = test system: M14 melanoma
IGROV1 ovarian = test system: IGROV1 ovarian
CAKI-1 renal = test system: CAKI-1 renal
SN12C renal = test system: SN12C renal
PC-3 prostate = test system: PC-3 prostate
HCC-2998 colon = test system: HCC-2998 colon

Compound | GI50 (SW-620 colon) [µM] | TGI (SW-620 colon) [µM] | GI50 (SK-MEL-2 melanoma) [µM] | TGI (SK-MEL-2 melanoma) [µM] | GI50 (786-0 renal) [µM] | TGI (786-0 renal) [µM] | GI50 (OVCAR-8 ovarian) [µM] | TGI (OVCAR-8 ovarian) [µM] | GI50 (M14 melanoma) [µM] | TGI (M14 melanoma) [µM] | GI50 (IGROV1 ovarian) [µM] | TGI (IGROV1 ovarian) [µM] | GI50 (CAKI-1 renal) [µM] | TGI (CAKI-1 renal) [µM] | GI50 (SN12C renal) [µM] | TGI (SN12C renal) [µM] | GI50 (PC-3 prostate) [µM] | TGI (PC-3 prostate) [µM] | GI50 (HCC-2998 colon) [µM] | TGI (HCC-2998 colon) [µM]
CC1CCC(C#N)(NOC2=NCCN2)CC1 (stereo not given) | 33.2 | > 100 | > 100 | > 100 | 16.3 | 37.1 | 29.2 | > 100 | 46.4 | > 100 | 41.7 | > 100 | 16.2 | 33.8 | 36.2 | > 100 | > 100 | > 100 | – | –
O=C(Nc1ccc([N+](=O)[O-])cc1)c1cc2ccccc2cc1O | 0.477 | > 27.5 | 0.285 | 0.722 | 0.399 | 1.91 | 0.425 | 12.6 | – | – | 0.575 | 12.5 | 0.26 | 0.955 | 0.348 | 5.92 | 0.937 | 7.88 | 1.25 | 4.8
c1cc(C2N3CCCN2CC3)ccn1 (stereo not given) | – | > 100 | – | > 100 | – | > 100 | – | > 100 | – | > 100 | – | > 100 | – | > 100 | – | > 100 | – | > 100 | – | > 100
COc1cccc2cc(N(C)c3nc(C)nc4ccsc34)ccc12 | < 0.01 | 16.6 | 0.123 | 17.3 | < 0.01 | 12.3 | < 0.01 | 38.5 | < 0.01 | 12.6 | < 0.01 | 14.5 | < 0.01 | 15.3 | < 0.01 | 15 | < 0.01 | 15.1 | < 0.01 | 8.01
Cc1sc2c(c1C)C(c1ccc(Cl)cc1)=N[C@@H](CC(=O)Nc1ccc(O)cc1)c1nnc(C)n1-2 | 10.6 | 32 | 3.31 | 22 | 0.837 | 24.8 | 2.26 | 40.6 | 0.276 | 20.2 | 2.5 | 39.9 | 0.0946 | 16.2 | 9.41 | 30.7 | 1.11 | 23.1 | 2.48 | 21.8
CCCCCCCCCCC(CN(CC)CC)C(O)c1ccccc1 (stereo not given) | 1.8 | 3.43 | 2.31 | 5.45 | 1.67 | 3.15 | 2.37 | 5.83 | 1.74 | 3.4 | 1.82 | 3.51 | 1.51 | 2.92 | 2.11 | 5.69 | 1.62 | 3.13 | 1.81 | 3.39
COc1ccc(NCc2c(O)ccc3ccccc23)cc1 | – | 49.6 | – | > 100 | – | 32 | – | 29.2 | – | 47.6 | – | > 100 | – | 67.1 | – | > 100 | – | 49.9 | – | –
COc1ccc(-c2cc3nccn3c(Nc3ncccc3C(N)=O)n2)cc1OC | 2.34 | > 100 | 0.824 | > 100 | 2.42 | > 100 | 0.955 | > 100 | > 65.7 | > 100 | 0.472 | 6.19 | 0.274 | > 100 | 1.05 | > 100 | > 100 | > 100 | > 100 | > 100
COC(=O)C1CCC(N2C(=O)CCC2C(=O)OC)=N1 (stereo not given) | – | > 100 | – | > 100 | – | > 100 | – | > 100 | – | > 100 | – | > 100 | – | > 100 | – | > 100 | – | – | – | > 100
Cc1cccc(NC(=O)Cc2nc3ccccc3s2)c1C | – | > 100 | – | > 100 | – | > 100 | – | > 100 | – | > 100 | – | > 100 | – | > 100 | – | > 100 | – | – | – | > 100
COc1ccc(Cn2cc3c(c2-c2ccccc2)CCc2cncnc2-3)cc1 | 3.65 | 13.9 | – | – | 10.1 | 38.5 | 7.76 | 23.7 | 4.2 | 18.2 | 5.8 | 23.9 | 3.55 | 17.5 | 5.85 | 20.9 | 8.71 | 31.1 | 11.9 | 25.5
c1cc(-c2cnn3nc(N4CCOCC4)ccc23)nc(NC2CC2)n1 | 8.9 | > 25 | 7.82 | 21.6 | 8.9 | > 25 | 7.9 | > 25 | 9.04 | > 25 | 10.3 | > 25 | 7.21 | > 25 | 8.83 | > 25 | 7.87 | > 25 | 8.64 | > 25
O=C(O)C1=C(Cl)c2ccccc2S1(=O)=O | – | > 100 | – | > 100 | – | > 100 | – | > 100 | – | > 100 | – | > 100 | – | > 100 | – | > 100 | – | – | – | > 100
O/N=C1/C(=C/c2ccc(Cl)cc2)CCCC1C(NO)c1ccc(Cl)cc1 (stereo not given) | – | > 100 | – | 68.5 | – | 42.7 | – | 55.3 | – | 33.8 | – | > 100 | – | 53.5 | – | 39.7 | – | – | – | 47.4
COC(=O)C1=C2CO[C@@H]3C[C@H]4C(C)(C)CCC[C@]4(C)C(=CC1)[C@]23C | 39.5 | > 100 | – | – | 41.5 | > 100 | 40.2 | > 100 | 32.6 | > 100 | 60.7 | > 100 | 19.5 | 52.1 | 35.1 | > 100 | 0.229 | 0.692 | – | –
